Literature values, collected in patent publication EP2610673B1, “Method for manufacturing lithographic printing plates” (FUJIFILM Corporation, priority 2011, dated 2013).

For `OCc1ccccc1` [benzyl alcohol], the “solubility in 20°C water” value is listed as 4.0 g/100 mL.
For `CCC(O)CC` [Example 3-pentanol, 3-pentanol], the “solubility in 20°C water” value is given as 5.2 g/100 mL.
In the case of `CCCC(C)=O` [Example 2-pentanone, 2-pentanone], the “solubility in 20°C water” value is given as 4.0 g/100 mL.
For `CC(C)CCO` [3-methyl-1-butanol], the “solubility in 20°C water” value is given as 2.7 g/100 mL.
For `CC(C)(C)CO` [neopentyl alcohol], the “solubility in 20°C water” value is listed as 3.5 g/100 mL.
For `CCCCCO` [Example 1-pentanol, 1-pentanol], the “solubility in 20°C water” value is listed as 2.7 g/100 mL.
In the case of `OCCOc1ccccc1` [ethylene glycol monophenyl ether], the “solubility in 20°C water” value is given as 2.7 g/100 mL.
In the case of `CC(C)CC(C)O` (stereo not shown) [4-methyl-2-pentanol], the “solubility in 20°C water” value is listed as 2.0 g/100 mL.
For `CCC(C)CO` (stereo not shown) [2-methyl-1-butanol], the “solubility in 20°C water” value is listed as 3.0 g/100 mL.
For `CCCC(C)O` (stereo not shown) [Example 2-pentanol, 2-pentanol], the “solubility in 20°C water” value is given as 4.5 g/100 mL.
In the case of `CCCCOCCOCCOC(C)=O` [diethylene glycol monobutyl ether acetate], the “solubility in 20°C water” value is given as 6.5 g/100 mL.
In the case of `CCCCOCC(C)O` (stereo not shown) [propylene glycol mono-n-butyl ether], the “solubility in 20°C water” value is given as 4.4 g/100 mL.
In the case of `CCCOC(C)=O` [propyl acetate], the “solubility in 20°C water” value is listed as 1.6 g/100 mL.
In the case of `CCC(=O)CC` [diethyl ketone], the “solubility in 20°C water” value is given as 1.7 g/100 mL.
For `CC(C)C(C)O` (stereo not shown) [3-methyl-2-butanol], the “solubility in 20°C water” value is listed as 5.6 g/100 mL.
For `CC(=O)OC(C)C` [isopropyl acetate], the “solubility in 20°C water” value is listed as 4.3 g/100 mL.
